Assay results reported in ChEMBL document CHEMBL1201862, “PubChem BioAssay data set” (2004).
One block for each compound: values may come before it. The source made the active and inactive calls.

Tests used:
[1] = molecular target: Protein-tyrosine kinase 2-beta (Homo sapiens, UniProt Q14289);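 also: potency of inhibitors of PYK2 kinase phosphorylation of poly-GT substrate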
[2] = molecular target: Glyceraldehyde-3-phosphate dehydrogenase (Homo sapiens, UniProt P04406)
[3] = molecular target: T1, Bcl-2-related protein A1 (Mus musculus, UniProt Q07440); assay: Bfl-1 binding inhibitors, SAR follow-up, biochemical, fluorescence polarization (AID 1070)
T1 sequence (Q07440 whole entry): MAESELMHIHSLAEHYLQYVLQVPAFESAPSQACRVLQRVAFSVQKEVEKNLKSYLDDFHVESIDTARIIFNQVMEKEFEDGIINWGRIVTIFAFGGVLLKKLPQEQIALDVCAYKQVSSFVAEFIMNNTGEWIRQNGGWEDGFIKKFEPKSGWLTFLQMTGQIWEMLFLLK

[4] = molecular target: T1, Bcl-2-related protein A1; assay: Bfl-1 inhibitors blocking BH3 peptide binding, confirmation, biochemical, TR-FRET, mouse Bfl-1 (AID 621);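 also: TR-FRET binding of GST-Bfl-1 to FITC-labelled Bid peptide via terbium antibody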
[5] = molecular target: T2, E3 ubiquitin-protein ligase XIAP (Homo sapiens, UniProt P98170); assay: XIAP antagonists, biochemical, IAP family, fluorescence polarization (AID 1018); type: functional
T2 sequence (P98170 whole entry): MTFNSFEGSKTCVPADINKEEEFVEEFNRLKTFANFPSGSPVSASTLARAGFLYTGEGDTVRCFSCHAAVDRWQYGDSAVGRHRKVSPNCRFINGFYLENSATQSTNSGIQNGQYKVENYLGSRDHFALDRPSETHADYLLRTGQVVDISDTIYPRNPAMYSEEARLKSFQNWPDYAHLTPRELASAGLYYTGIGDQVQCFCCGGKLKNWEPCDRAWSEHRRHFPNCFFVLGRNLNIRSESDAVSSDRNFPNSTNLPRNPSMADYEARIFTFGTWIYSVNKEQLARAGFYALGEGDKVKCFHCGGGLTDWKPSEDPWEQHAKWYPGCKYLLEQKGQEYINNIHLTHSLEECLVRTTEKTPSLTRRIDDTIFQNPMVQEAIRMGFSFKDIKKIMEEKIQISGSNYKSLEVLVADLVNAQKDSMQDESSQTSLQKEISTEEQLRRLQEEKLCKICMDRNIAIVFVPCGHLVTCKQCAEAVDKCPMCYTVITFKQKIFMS

[6] = molecular target: T2, E3 ubiquitin-protein ligase XIAP; assay: Counter Screen using XIAP-Bir3 for Chemical Antagonists of Bir1/2 domains of IAP-family anti-apoptotic proteins. [Related pubchem assays (depositor defined):AID1018, AID1449, AID1514, AID1638, AID1749, AID1750, AID488957, AID488963]
[7] = test system: HT-1080; assay: cytotoxicity in HT1080 fibrosarcoma cells, cell-based, fluorescence readout (AID 620); type: functional; conditions: Homo sapiens
[8] = molecular target: Luciferin 4-monooxygenase (Photinus pyralis, UniProt P08659); assay: Counter Screen for Luciferase-based Assay Positives. [Related pubchem assays: 620, 618, 411 ]
Chain of Luciferin 4-monooxygenase (P08659 whole entry): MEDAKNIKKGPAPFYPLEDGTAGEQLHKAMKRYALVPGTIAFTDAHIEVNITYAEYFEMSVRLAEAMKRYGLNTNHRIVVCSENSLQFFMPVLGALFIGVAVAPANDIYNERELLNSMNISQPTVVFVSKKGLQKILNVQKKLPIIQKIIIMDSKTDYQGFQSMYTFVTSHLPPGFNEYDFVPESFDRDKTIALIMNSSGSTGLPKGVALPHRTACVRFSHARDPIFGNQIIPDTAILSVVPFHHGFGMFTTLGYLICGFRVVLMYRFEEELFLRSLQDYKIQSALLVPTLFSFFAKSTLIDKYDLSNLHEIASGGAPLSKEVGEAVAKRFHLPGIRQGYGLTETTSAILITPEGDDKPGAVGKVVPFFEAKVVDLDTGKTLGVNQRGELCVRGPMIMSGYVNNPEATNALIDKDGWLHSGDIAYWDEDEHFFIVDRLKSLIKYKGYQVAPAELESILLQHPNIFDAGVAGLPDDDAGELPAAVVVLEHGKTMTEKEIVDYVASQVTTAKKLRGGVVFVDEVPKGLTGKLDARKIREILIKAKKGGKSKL

[9] = molecular target: Epstein-Barr nuclear antigen 1 (Epstein-Barr virus (strain B95-8) (HHV-4) (Human herpesvirus 4), UniProt P03211); assay: EBNA-1 inhibitors, dose response, biochemical, fluorescence polarization, 1536-well (AID 2381); parameters: species or system human gammaherpesvirus 4;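 also: fluorescence polarization of a Cy5 DNA probe bound by EBNA-1 protein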
Chain of Epstein-Barr nuclear antigen 1 (P03211 whole entry): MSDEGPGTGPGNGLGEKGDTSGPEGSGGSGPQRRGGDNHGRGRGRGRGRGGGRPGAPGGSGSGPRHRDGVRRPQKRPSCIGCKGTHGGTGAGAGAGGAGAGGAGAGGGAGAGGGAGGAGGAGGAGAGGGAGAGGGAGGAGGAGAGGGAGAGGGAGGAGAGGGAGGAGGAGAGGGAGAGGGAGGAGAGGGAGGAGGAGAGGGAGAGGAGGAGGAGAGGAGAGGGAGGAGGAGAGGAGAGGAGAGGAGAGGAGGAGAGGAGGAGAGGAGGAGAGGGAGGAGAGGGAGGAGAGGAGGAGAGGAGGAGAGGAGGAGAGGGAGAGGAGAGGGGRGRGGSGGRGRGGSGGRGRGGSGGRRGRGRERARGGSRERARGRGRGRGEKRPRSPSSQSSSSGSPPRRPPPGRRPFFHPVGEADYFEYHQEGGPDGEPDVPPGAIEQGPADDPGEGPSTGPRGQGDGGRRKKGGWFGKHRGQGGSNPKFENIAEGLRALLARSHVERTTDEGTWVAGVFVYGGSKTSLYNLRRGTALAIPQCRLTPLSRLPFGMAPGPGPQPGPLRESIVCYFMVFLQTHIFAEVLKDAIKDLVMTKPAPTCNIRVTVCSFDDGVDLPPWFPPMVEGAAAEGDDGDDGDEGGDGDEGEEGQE

[10] = molecular target: Lytic switch protein BZLF1 (Epstein-Barr virus (strain B95-8) (HHV-4) (Human herpesvirus 4), UniProt P03206); assay: EBV ZTA inhibitors, dose response, counter-screen for EBNA-1 inhibitor project, biochemical, fluorescence polarization, Epstein-Barr virus, 1536-well (AID 2377); parameters: species or system human gammaherpesvirus 4;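 also: fluorescence polarization of Cy5-labelled ZRE DNA probe bound by purified Zta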
Chain of Lytic switch protein BZLF1 (P03206 whole entry): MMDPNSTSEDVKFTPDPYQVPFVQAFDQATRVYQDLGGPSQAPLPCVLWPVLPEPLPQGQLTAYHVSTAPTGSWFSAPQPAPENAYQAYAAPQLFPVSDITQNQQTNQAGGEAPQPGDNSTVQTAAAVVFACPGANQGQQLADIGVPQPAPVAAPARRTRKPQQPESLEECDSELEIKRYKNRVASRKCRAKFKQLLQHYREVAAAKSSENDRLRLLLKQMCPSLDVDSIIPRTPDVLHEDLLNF

[11] = molecular target: 5-hydroxytryptamine receptor 1E (Homo sapiens, UniProt P28566); assay: Counterscreen assay for S1P3 antagonists: Dose response cell-based high throughput screening assay to identify antagonists of the 5-Hydroxytryptamine Receptor Subtype 1E (5HT1E). [Related pubchem assays: 1429, 485 ]; type: functional
Chain of 5-hydroxytryptamine receptor 1E (P28566 whole entry): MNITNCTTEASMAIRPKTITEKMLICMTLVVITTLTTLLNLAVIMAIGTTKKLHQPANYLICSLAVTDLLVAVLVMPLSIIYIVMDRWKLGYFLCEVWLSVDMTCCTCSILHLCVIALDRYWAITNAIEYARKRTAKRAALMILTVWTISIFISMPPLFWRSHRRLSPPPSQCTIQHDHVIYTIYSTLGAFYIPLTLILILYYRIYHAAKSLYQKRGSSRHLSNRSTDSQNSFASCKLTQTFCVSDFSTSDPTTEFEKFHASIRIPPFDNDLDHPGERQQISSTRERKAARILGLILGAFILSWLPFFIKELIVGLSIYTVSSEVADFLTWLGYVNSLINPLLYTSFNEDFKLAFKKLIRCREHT

[12] = molecular target: Sphingosine 1-phosphate receptor 3 (Homo sapiens, UniProt Q99500); assay: Dose response cell-based high throughput screening assay for antagonists of the Sphingosine 1-Phosphate Receptor 3 (S1P3). [Related pubchem assays: 1429, 485 ]; type: functional
Chain of Sphingosine 1-phosphate receptor 3 (Q99500 whole entry): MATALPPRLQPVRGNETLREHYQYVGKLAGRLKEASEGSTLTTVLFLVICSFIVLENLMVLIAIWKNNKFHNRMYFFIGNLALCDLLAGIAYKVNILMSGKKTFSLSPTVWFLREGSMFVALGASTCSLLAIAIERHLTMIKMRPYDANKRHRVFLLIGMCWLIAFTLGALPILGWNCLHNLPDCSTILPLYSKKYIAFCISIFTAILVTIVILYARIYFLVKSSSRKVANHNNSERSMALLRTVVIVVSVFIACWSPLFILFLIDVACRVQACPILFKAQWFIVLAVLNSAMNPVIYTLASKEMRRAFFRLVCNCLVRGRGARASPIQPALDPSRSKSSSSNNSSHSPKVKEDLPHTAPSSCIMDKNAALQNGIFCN

[13] = molecular target: T3, Heat shock 70 kDa protein 1A (Homo sapiens, UniProt P0DMV8); assay: Hsp70 inhibitors, biochemical, TR-FRET (AID 786)
T3 sequence (P0DMV8 whole entry): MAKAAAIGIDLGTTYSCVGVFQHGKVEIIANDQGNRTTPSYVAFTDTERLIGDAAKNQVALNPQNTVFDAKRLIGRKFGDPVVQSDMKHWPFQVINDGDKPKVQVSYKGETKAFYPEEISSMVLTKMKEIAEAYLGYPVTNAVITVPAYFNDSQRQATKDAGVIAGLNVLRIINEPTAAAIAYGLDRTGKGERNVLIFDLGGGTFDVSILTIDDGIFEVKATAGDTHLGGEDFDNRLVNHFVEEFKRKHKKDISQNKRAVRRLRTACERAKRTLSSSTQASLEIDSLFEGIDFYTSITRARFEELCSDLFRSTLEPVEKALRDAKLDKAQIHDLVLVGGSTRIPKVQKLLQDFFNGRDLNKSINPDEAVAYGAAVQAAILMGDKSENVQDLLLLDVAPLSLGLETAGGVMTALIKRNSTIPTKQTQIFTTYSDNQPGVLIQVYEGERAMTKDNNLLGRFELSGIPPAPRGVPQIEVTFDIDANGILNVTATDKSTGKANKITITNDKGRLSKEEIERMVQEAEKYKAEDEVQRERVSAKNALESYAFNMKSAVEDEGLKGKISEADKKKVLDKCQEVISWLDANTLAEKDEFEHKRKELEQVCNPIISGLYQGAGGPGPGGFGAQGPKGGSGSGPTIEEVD

[14] = molecular target: T3, Heat shock 70 kDa protein 1A; assay: Hsp70 inhibitors, probe displacement, primary screen, biochemical, fluorescence polarization (AID 583)

Chain of Glyceraldehyde-3-phosphate dehydrogenase (P04406 whole entry): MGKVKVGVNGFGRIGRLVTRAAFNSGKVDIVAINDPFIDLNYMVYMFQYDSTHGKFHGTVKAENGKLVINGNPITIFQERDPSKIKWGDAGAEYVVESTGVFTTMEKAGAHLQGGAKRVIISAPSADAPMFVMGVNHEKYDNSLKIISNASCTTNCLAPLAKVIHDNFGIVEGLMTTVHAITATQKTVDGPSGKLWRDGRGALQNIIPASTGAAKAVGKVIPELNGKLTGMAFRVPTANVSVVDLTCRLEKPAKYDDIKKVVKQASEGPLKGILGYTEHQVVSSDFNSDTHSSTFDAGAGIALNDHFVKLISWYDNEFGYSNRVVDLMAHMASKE
Chain of Protein-tyrosine kinase 2-beta (Q14289 whole entry): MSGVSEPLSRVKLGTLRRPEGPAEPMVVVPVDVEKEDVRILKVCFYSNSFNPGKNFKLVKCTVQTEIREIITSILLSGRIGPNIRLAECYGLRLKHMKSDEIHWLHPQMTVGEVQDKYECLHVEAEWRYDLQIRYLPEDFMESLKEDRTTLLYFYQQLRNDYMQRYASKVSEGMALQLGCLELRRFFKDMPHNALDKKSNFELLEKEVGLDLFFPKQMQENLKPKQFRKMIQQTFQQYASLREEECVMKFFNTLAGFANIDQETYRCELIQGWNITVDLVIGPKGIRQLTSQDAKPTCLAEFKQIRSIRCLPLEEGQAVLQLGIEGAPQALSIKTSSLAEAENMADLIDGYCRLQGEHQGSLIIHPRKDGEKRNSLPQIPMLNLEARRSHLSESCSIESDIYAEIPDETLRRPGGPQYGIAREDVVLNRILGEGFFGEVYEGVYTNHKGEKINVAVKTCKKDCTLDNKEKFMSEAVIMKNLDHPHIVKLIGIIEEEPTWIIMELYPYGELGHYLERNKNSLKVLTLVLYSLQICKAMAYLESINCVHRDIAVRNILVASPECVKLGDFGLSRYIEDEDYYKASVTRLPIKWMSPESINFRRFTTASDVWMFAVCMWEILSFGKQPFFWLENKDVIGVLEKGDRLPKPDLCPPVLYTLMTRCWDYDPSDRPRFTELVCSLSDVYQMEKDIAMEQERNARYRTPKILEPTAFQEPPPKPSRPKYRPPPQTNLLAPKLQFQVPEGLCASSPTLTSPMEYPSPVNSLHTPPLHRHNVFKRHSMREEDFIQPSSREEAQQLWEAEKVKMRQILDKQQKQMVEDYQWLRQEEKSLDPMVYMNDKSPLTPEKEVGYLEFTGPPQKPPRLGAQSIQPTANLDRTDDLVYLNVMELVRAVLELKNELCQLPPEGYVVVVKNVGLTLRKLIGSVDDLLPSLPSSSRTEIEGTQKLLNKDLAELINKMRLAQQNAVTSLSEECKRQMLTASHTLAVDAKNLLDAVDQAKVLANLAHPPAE

Structure (SMILES): O=C1C(Cl)=C(Cl)C(=O)N1c1cccc(Cl)c1Cl
IC50 [2]: > 100 µM (not active)
IC50 [3]: 0.979 µM (active)
IC50 [4]: 0.5 µM (active)

Structure (SMILES): Nc1ccc2oc(-c3ccc4[nH]cnc4c3)nc2c1
EC50 [7]: > 50 µM (not active)
EC50 [8]: 11.2 µM (active)

Structure (SMILES): O=C(Nc1ccc(Oc2ccc3c(c2)C(=O)N(c2ccc(O)cc2)C3=O)cc1)c1cccs1
IC50 [9]: 15.1 µM (not active)
IC50 [10]: > 111 µM (not active)

Structure (SMILES): CC1CCCCN1C(=O)Cn1cc(C(=O)c2ccco2)c2ccccc21 (centres undefined)
IC50 [11]: > 50 µM (not active)
IC50 [12]: > 50 µM (not active)

Continued, values first:

IC50 [1]: > 69.5 µM (not active)
Structure (SMILES): CCN(CC)S(=O)(=O)c1cc([N+](=O)[O-])ccc1NNC(=O)Nc1ccccc1

IC50 [5]: > 100 µM (not active)
IC50 [6]: > 100 µM (inactive)
Structure (SMILES): O=c1c2ccccc2nnn1CSc1nnc(-c2cccs2)n1Cc1ccccc1

IC50 [13]: > 100 µM (not active)
IC50 [14]: > 100 µM (not active)
Structure (SMILES): Cc1c(NC(=O)Nc2ccc(Cl)cc2)c(=O)n(-c2ccccc2)n1C
